The subject of one experiment is HepG2. Nature of the experiment: Cytotoxicity against human HepG2 cells assessed as cell death after 48 hrs by Cell Titer-Glo assay. Type of experiment: cell-based. Particulars: HepG2, 48 h.
For another experiment, the system named is Plasmodium falciparum. Description: Antiplasmodial activity against Plasmodium falciparum 3D7 infected in human O positive erythrocyte after 72 hrs. In kind it is functional, organism-based. Particulars: 3D7, 72 h.
The next experiment has as its target Cathepsin D (Homo sapiens, UniProt P07339). Description: Inhibition of human cathepsin D assessed as cleavage of wtKAHRP fluorogenic substrate.
The target in experiment [1] is Plasmepsin V (Plasmodium falciparum (isolate 3D7)) (UniProt Q8I6Z5). Nature of the experiment: Inhibition of plasmepsin V in Plasmodium falciparum trophozoite expressing PfEMP3-GFP infected erythrocyte assessed as PEXEL processing at 20 uM by immunoblotting analysis. On the technique in general: In western blotting, separated proteins are transferred to a membrane and probed.

Another experiment deals with Beta-secretase 1 (Homo sapiens, UniProt P56817). Nature of the experiment: Inhibition of human BACE1 assessed as cleavage of TRF substrate.
In experiment [2] the target is Plasmepsin V (Plasmodium falciparum (isolate 3D7), UniProt Q8I6Z5). Description: Inhibition of Plasmodium falciparum plasmepsin V assessed as cleavage of wtKAHRP fluorogenic substrate.
Experiment [3] concerns the target Plasmepsin V (Plasmodium falciparum (isolate 3D7)) (UniProt Q8I6Z5). Description: Inhibition of Plasmodium falciparum plasmepsin V assessed as cleavage of wtKAHRP fluorogenic substrate at 1 uM.
Experiment [4] deals with Plasmepsin V (Plasmodium vivax, UniProt A0A0H4FQ60). Nature of the experiment: Inhibition of Plasmodium vivax plasmepsin V by fluorogenic PEXEL cleavage assay.
The target in experiment [5] is Plasmepsin V (Plasmodium vivax) (UniProt A0A0H4FQ60). Nature of the experiment: Inhibition of Plasmodium vivax plasmepsin V at 1 uM by fluorogenic PEXEL cleavage assay.

Molecules are shown by their SMILES. Values joined by “and” are separate entries in the source; they are usually repeats but may differ in a detail not shown here. Equal entries are not always repeated. Square brackets hold non-standard residues; d marks the D form. Peptide text beside a SMILES is read from it. * marks the point of attachment. Sta = CC(C)C[C@H](N)[C@@H](O)CC(=O)O; NHPhenethyl = c1ccc(CCN*)cc1; Cbz = O=C(OCc1ccccc1)*; NHBn = c1ccc(CN*)cc1 A value given as a limit tells only on which side of the number the result lay.

Chain of Cathepsin D (P07339 65-162 limits assumed): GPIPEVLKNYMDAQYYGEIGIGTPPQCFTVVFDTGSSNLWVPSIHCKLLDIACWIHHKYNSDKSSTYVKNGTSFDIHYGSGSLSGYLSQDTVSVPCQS
Chain of Cathepsin D (P07339 169-412 limits assumed): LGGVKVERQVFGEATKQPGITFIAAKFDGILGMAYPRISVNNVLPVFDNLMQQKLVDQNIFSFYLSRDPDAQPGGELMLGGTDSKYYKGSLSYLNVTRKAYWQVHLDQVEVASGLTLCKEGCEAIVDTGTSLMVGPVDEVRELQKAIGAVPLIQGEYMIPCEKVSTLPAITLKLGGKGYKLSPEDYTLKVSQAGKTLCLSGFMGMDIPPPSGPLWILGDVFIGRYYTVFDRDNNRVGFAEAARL
Chain of Plasmepsin V (Plasmodium falciparum (isolate 3D7), UniProt Q8I6Z5) (Q8I6Z5 whole entry): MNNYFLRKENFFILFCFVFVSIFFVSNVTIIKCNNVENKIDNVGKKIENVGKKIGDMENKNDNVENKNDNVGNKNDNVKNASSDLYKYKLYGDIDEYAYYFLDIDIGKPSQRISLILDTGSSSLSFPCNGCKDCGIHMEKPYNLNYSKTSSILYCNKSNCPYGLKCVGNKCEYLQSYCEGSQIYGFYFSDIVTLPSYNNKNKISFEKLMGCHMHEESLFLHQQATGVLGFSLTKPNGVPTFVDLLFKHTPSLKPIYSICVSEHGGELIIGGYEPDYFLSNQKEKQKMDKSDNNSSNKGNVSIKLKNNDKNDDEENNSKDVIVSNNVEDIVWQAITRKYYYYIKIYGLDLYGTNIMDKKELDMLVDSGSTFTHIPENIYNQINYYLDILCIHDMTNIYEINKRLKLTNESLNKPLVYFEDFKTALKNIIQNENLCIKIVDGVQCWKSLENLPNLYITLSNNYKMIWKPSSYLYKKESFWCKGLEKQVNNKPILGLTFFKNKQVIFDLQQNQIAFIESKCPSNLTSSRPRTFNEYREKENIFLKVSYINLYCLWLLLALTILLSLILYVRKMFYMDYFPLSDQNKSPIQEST
Chain of Plasmepsin V (Plasmodium falciparum (isolate 3D7)) (Q8I6Z5 whole entry, looked up): as the sequence (Q8I6Z5 whole entry) above
Chain of Beta-secretase 1 (P56817 whole entry): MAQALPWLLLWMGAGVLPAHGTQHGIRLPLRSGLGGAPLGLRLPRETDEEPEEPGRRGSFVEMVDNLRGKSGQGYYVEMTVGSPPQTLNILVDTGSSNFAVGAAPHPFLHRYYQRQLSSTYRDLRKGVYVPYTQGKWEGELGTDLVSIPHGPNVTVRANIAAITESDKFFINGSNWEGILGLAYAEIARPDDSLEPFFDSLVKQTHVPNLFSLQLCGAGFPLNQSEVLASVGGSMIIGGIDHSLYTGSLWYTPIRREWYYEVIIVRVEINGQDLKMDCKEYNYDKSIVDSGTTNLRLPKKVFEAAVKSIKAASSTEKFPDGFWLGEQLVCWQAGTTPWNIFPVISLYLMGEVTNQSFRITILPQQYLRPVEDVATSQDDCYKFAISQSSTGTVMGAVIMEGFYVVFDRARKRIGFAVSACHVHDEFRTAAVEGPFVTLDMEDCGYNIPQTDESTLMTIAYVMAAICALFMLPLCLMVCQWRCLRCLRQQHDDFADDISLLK
Chain of Plasmepsin V (Plasmodium vivax) (A0A0H4FQ60 as listed by the source): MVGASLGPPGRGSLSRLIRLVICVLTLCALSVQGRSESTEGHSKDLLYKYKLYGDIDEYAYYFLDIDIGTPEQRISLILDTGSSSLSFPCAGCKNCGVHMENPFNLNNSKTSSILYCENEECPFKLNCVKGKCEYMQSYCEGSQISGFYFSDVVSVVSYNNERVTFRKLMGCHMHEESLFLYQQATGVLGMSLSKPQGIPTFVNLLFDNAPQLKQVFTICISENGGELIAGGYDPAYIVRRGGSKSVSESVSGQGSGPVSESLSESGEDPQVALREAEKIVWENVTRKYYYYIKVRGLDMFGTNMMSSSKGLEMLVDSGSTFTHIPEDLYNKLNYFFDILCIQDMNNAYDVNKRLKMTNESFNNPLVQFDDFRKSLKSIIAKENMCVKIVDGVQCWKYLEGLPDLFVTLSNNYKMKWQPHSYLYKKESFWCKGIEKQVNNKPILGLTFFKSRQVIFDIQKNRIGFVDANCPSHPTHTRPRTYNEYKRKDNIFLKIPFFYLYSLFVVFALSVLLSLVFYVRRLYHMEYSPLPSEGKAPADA
Chain of Plasmepsin V (Plasmodium vivax, UniProt A0A0H4FQ60) (A0A0H4FQ60 whole entry): as the sequence (A0A0H4FQ60 as listed by the source) above

With `CC(C)C[C@H](NC(=O)[C@H](C)NC(=O)[C@H](CCCN)NC(=O)OCc1ccccc1)[C@@H](O)CC(=O)NC1CCCCC1`, the EC50 in the experiment on HepG2 and in the experiment on Plasmodium falciparum was over 50 µM each time. Also, the IC50 on Cathepsin D was over 100 µM; at Beta-secretase 1 it was over 100 µM; on Plasmepsin V [2], over 20 µM. Also, the Activity in experiment [1] is 0.18 OD/mm2.
`CC(C)C[C@H](NC(=O)[C@H](C)NC(=O)[C@H](CCCNC(=N)N)NS(=O)(=O)c1ccccc1)[C@@H](O)CC(=O)NCCc1ccccc1`: the 50% effective concentration (EC50) was over 50 µM in the experiment on HepG2 and 16.3 µM in the experiment on Plasmodium falciparum. For the same compound, the inhibition in [3] is 78%. For the same compound, the half-inhibitory concentration (IC50) on Cathepsin D was over 100 µM; on Beta-secretase 1, over 100 µM; at Plasmepsin V [2], 0.378 µM. For the same compound, the Activity in experiment [1] came to 0.31 OD/mm2.
With `CC[C@H](C)[C@H](NC(=O)[C@H](CCCNC(=N)N)NC(=O)OCc1ccccc1)C(=O)N[C@@H](CC(C)C)[C@@H](O)CC(=O)NC1CCCCC1`, it took 6.8 µM to reach a half-maximal effect in the experiment on Plasmodium falciparum (EC50). In addition, the IC50 at Cathepsin D is 0.447 µM; on Beta-secretase 1 it was over 100 µM; on Plasmepsin V [2], 0.026 µM. The Activity in [1] stood at 0.53 OD/mm2.
Regarding `CC(C)C[C@H](NC(=O)[C@H](CCCNC(=N)N)NC(=O)OCc1ccccc1)C(=O)N[C@@H](CC(C)C)[C@@H](O)CC(=O)NC1CCCCC1`, the concentration for a half-maximal effect (EC50) was over 50 µM with HepG2 and 8.9 µM in the experiment on Plasmodium falciparum. Further, the IC50 was 5.1 µM on Cathepsin D, over 100 µM at Beta-secretase 1 and 0.077 µM on Plasmepsin V [2]. In [1], the Activity is 0.26 OD/mm2.
`CC(C)C[C@H](NC(=O)[C@H](C)NC(=O)[C@H](CCCNC(=N)N)NC(=O)OCc1ccccc1)[C@@H](O)CC(=O)NC(C)c1ccccc1` (mixture of isomers): the inhibition in experiment [3] turned out to be 56%. For the same compound, the concentration for half-maximal inhibition (IC50) was over 100 µM at Cathepsin D, over 100 µM on Beta-secretase 1 and 0.569 µM at Plasmepsin V [2].
Regarding `CC(C)C[C@H](NC(=O)[C@H](C)NC(=O)[C@H](CCCNC(=N)N)NC(=O)OCc1ccccc1)[C@@H](O)CC(=O)N(C)CCc1ccc(Cl)cc1`, in experiment [3], the inhibition is 20%. In addition, the IC50 is over 100 µM at Cathepsin D, over 100 µM at Beta-secretase 1 and 2.01 µM on Plasmepsin V [2].
With `CC(C)C[C@H](NC(=O)[C@@H](NC(=O)[C@H](CCCNC(=N)N)NS(=O)(=O)Cc1ccccc1)C(C)C)[C@@H](O)CC(=O)NCCc1ccccc1`, the results for the 50% effective concentration (EC50) in the experiment on HepG2 and in the experiment with Plasmodium falciparum were over 50 µM and 2.5 µM, respectively. Also, the IC50 was 32 µM at Cathepsin D, 0.024 µM against Plasmepsin V [4], over 100 µM at Beta-secretase 1 and 0.019 µM at Plasmepsin V [2]. The Activity in experiment [1] is 2.76 OD/mm2.
Compound `C[C@H](NC(=O)[C@H](CCCNC(=N)N)NC(=O)OCc1ccccc1)C(=O)N[C@@H](CC1CCCCC1)[C@@H](O)CC(=O)NC1CCCCC1` registered an inhibition in experiment [5] of 35%. For the same compound, the half-maximal inhibitory concentration (IC50) at Plasmepsin V [2] is over 20 µM.
Take `CC(C)C[C@H](NC(=O)[C@H](C)NC(=O)[C@H](CCCNC(=N)N)NC(=O)OCc1ccccc1)[C@@H](O)CC(=O)NCc1ccccc1` (Cbz-Arg-Ala-[Sta]-NHBn): in [3], the inhibition is 60%. Besides, the IC50 at Cathepsin D is over 100 µM; at Beta-secretase 1, over 100 µM; on Plasmepsin V [2], 0.53 µM.
In the case of `CC(C)C[C@H](NC(=O)[C@H](C)NC(=O)[C@H](CCCNC(=N)N)NS(=O)(=O)Cc1ccccc1)[C@@H](O)CC(=O)NCCc1ccccc1`, the inhibition in experiment [3] is 89%. Also, the IC50 is over 100 µM on Cathepsin D, over 100 µM on Beta-secretase 1 and 0.625 µM at Plasmepsin V [2].
Consider `CC(C)C[C@H](NC(=O)[C@H](C)NC(=O)[C@H](CCCNC(=N)N)NC(=O)OCc1ccccc1)[C@@H](O)CC(=O)NC1CCCCC1`, for which the 50% effective concentration (EC50) with HepG2 is over 50 µM; with Plasmodium falciparum, 34.6 µM. Besides, the inhibition in [3] was 54% and 51%. Besides, the values for the concentration for half-maximal inhibition (IC50) at Cathepsin D, on Beta-secretase 1 and on Plasmepsin V [2] were over 100 µM, over 100 µM and 0.614 µM, respectively. In addition, in experiment [1], the Activity stood at 0.2 OD/mm2.
With `CC(C)C[C@H](NC(=O)[C@H](C)NC(=O)[C@H](CCCNC(=N)N)NC(=O)OCc1ccccc1)[C@@H](O)CC(=O)NCCc1ccccc1` (Cbz-Arg-Ala-[Sta]-NHPhenethyl), the inhibition in experiment [3] came to 79%. Further, the IC50 at Cathepsin D is 29 µM; at Beta-secretase 1, over 100 µM; on Plasmepsin V [2] it was 0.622 µM.
The like results for `CC(C)C[C@H](NC(=O)[C@H](C)NC(=O)[C@H](CCCNC(=N)N)NC(=O)OCc1ccccc1)[C@@H](O)CC(=O)NC1Cc2ccccc2C1` were, in that order, 66%, over 100 µM, over 100 µM and 0.772 µM.
In the case of `CC(C)C[C@H](NC(=O)[C@H](C)NC(=O)[C@H](CCCNC(=N)N)NC(=O)COCc1ccccc1)[C@@H](O)CC(=O)NCCc1ccccc1`, the results for the concentration giving a half-maximal response (EC50) with HepG2 and in the experiment with Plasmodium falciparum were over 50 µM and 23 µM, respectively. Besides, the inhibition in experiment [3] was determined as 81%. In addition, the half-inhibitory concentration (IC50) is over 100 µM on Cathepsin D, over 100 µM at Beta-secretase 1 and 0.55 µM at Plasmepsin V [2]. Besides, in experiment [1], the Activity is 0.16 OD/mm2.
Compound `CCN(CC)CCCC(C)Nc1ccnc2cc(Cl)ccc12` (stereo not drawn) [CHLOROQUINE] registered an EC50 in the experiment with Plasmodium falciparum of 0.003 µM.
With `CC(C)C[C@H](NC(=O)[C@@H](NC(=O)[C@H](CCCNC(=N)N)NC(=O)OCc1ccccc1)C(C)C)[C@@H](O)CC(=O)NC1CCCCC1`, the figures for the EC50 with HepG2 and with Plasmodium falciparum were over 50 µM and 9.8 µM, respectively. Besides, the 50% inhibitory concentration (IC50) on Cathepsin D was 0.713 µM; on Beta-secretase 1, over 100 µM; on Plasmepsin V [2], 0.029 µM. Also, the Activity in [1] was 0.24 OD/mm2.

What is called EC50 is the concentration needed to bring the measured effect to its halfway point. Broadly, the IC50 is the concentration that inhibits the measured activity by half. By inhibition is commonly meant the drop in the measured response relative to a control, in per cent.

These data come from ChEMBL document CHEMBL3352063, “Transition state mimetics of the Plasmodium export element are potent inhibitors of Plasmepsin V from P. falciparum and P. vivax” (J Med Chem, 2014).
